Measured values published in patent US20210317134A1, “UBIQUITIN-SPECIFIC-PROCESSING PROTEASE 7 (USP7) MODULATORS AND USES THEREOF” (RAPT THERAPEUTICS, INC., priority 2019, published 2021).

Molecular target: USP7 (Homo sapiens, UniProt Q93009)
Assay: USP7 inhibitory potency (Table 1)
Type: biochemical

USP7, sequence (Q93009 whole entry): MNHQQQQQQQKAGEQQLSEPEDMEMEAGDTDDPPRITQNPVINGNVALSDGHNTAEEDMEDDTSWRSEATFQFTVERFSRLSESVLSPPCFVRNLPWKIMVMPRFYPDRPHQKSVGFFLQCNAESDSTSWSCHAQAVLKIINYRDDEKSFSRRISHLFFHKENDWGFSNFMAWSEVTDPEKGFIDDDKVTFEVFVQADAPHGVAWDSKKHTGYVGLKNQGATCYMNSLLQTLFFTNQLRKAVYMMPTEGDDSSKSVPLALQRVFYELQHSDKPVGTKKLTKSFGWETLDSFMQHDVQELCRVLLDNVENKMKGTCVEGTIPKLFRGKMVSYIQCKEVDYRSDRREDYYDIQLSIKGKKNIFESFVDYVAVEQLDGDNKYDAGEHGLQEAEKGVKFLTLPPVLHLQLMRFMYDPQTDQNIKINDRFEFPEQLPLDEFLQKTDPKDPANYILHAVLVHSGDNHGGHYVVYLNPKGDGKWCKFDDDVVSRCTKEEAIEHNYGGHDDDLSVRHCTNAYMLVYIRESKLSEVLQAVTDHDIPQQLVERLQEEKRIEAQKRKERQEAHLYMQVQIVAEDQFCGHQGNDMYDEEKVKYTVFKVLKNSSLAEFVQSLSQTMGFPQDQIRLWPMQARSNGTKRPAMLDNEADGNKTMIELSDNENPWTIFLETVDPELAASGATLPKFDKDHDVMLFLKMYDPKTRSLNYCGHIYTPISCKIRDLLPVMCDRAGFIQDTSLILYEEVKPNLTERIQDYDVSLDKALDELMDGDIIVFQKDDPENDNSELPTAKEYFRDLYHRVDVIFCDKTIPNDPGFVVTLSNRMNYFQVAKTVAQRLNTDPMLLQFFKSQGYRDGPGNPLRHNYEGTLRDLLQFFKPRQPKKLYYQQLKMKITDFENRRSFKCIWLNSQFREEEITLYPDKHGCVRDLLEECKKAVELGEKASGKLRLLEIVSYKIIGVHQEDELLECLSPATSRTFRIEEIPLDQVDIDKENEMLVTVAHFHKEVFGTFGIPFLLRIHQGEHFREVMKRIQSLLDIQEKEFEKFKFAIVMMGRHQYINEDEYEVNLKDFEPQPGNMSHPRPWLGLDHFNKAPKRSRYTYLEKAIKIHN

| SMILES | IC50 [nM] |
| --- | --- |
| C[C@H](O)c1cc2c(-c3cc(Cl)cc4c3OC(C(=O)N3CCNCC3)C4)ccnc2[nH]1 (stereo partly drawn) [(5-chloro-7-(2-((S)-1-hydroxyethyl)-1H-pyrrolo[2,3-b]pyridin-4-yl)-2,3-dihydrobenzofuran-2-yl)(piperazin-1-yl)methanone] | 1000 to 10000 |
| O=C(C1Cc2cc(Cl)cc(-c3ccnc4ccccc34)c2O1)N1CCNCC1 (stereo not drawn) [(5-chloro-7-(quinolin-4-yl)-2,3-dihydrobenzofuran-2-yl)(piperazin-1-yl)methanone] | 1000 to 10000 |
| C[C@H]1C[C@H](NC(=O)C2Cc3cc(Cl)cc(-c4ccnc5[nH]ccc45)c3O2)CCN1 (stereo partly drawn) [5-chloro-N-((2S,4R)-2-methylpiperidin-4-yl)-7-(1H-pyrrolo[2,3-b]pyridin-4-yl)-2,3-dihydrobenzofuran-2-carboxamide] | 1000 to 10000 |
| O=C(C1Cc2cc(Cl)cc(-c3ccnc4[nH]ccc34)c2O1)N1CCC(O)(c2ccc(F)cc2Cl)CC1 (stereo not drawn) [(4-(2-chloro-4-fluorophenyl)-4-hydroxypiperidin-1-yl)(5-chloro-7-(1H-pyrrolo[2,3-b]pyridin-4-yl)-2,3-dihydrobenzofuran-2-yl)methanone] | 1000 to 10000 |
| CN(C)C1CCc2noc([C@H]3Cc4cc(Cl)cc(-c5ccnc6cc(CO)sc56)c4O3)c2C1 (stereo partly drawn) [(7-((2R)-5-chloro-2-(5-(dimethylamino)-4,5,6,7-tetrahydrobenzo[c]isoxazol-3-yl)-2,3-dihydrobenzofuran-7-yl)thieno[3,2-b]pyridin-2-yl)methanol] | < 1000 |
| CN(C)[C@H]1CCc2noc(C3Cc4cc(Cl)cc(-c5ccnc6cc(CO)sc56)c4O3)c2C1 (stereo partly drawn) [(7-(5-chloro-2-((S)-5-(dimethylamino)-4,5,6,7-tetrahydrobenzo[c]isoxazol-3-yl)-2,3-dihydrobenzofuran-7-yl)thieno[3,2-b]pyridin-2-yl)methanol] | 1000 to 10000 |
| CN(C)Cc1ncoc1[C@H]1Cc2cc(Cl)cc(-c3ncnc4ccsc34)c2O1 [(R)-1-(5-(5-chloro-7-(thieno[3,2-d]pyrimidin-4-yl)-2,3-dihydrobenzofuran-2-yl)oxazol-4-yl)-N,N-dimethylmethanamine] | 1000 to 10000 |
| O=C([C@H]1Cc2cc(Cl)cc(-c3ncnc4cc(CN5C(=O)CCC5=O)oc34)c2O1)N1CCNCC1 [(R)-1-((4-(5-chloro-2-(piperazine-1-carbonyl)-2,3-dihydrobenzofuran-7-yl)furo[3,2-d]pyrimidin-6-yl)methyl)pyrrolidine-2,5-dione] | < 1000 |
| CNC(=O)C1Cc2nccc(-c3cc(Cl)cc4c3O[C@@H](c3onc5c3CNCC5)C4)c2C1 (stereo partly drawn) [4-((R)-5-chloro-2-(4,5,6,7-tetrahydroisoxazolo[4,3-c]pyridin-3-yl)-2,3-dihydrobenzofuran-7-yl)-N-methyl-6,7-dihydro-5H-cyclopenta[b]pyridine-6-carboxamide] | 1000 to 10000 |
| O=C(C1Cc2cc(Cl)cc(-c3ccnc4[nH]ccc34)c2O1)N1CCN([C@H]2CC[C@@H](c3ccccc3)CC2)CC1 (stereo partly drawn) [(5-chloro-7-(1H-pyrrolo[2,3-b]pyridin-4-yl)-2,3-dihydrobenzofuran-2-yl)(4-((1s,4s)-4-phenylcyclohexyl)piperazin-1-yl)methanone] | 1000 to 10000 |
| O=C(C1Cc2cc(Cl)cc(-c3ccnc4[nH]c(-c5ccccc5)cc34)c2O1)N1CCNCC1 (stereo not drawn) [(5-chloro-7-(2-phenyl-1H-pyrrolo[2,3-b]pyridin-4-yl)-2,3-dihydrobenzofuran-2-yl)(piperazin-1-yl)methanone] | 10000 to 30000 |
| CCC(O)c1cc2ncnc(-c3cc(Cl)cc4c3O[C@@H](c3c5c(nn3C)CCNC5)C4)c2s1 (stereo partly drawn) [1-(4-((R)-5-chloro-2-(2-methyl-4,5,6,7-tetrahydro-2H-pyrazolo[4,3-c]pyridin-3-yl)-2,3-dihydrobenzofuran-7-yl)thieno[3,2-d]pyrimidin-6-yl)propan-1-ol] | < 1000 |
| COc1ccc2nccc(-c3cc(Cl)cc4c3OC(C(=O)N3CCNCC3)C4)c2c1 (stereo not drawn) [(5-chloro-7-(6-methoxyquinolin-4-yl)-2,3-dihydrobenzofuran-2-yl)(piperazin-1-yl)methanone] | 10000 to 30000 |
| O=C([C@H]1Cc2cc(Cl)cc(-c3ccnc4c3CC(CN3C(=O)CCC3=O)C4)c2O1)N1CCNCC1 (stereo partly drawn) [1-((4-((R)-5-chloro-2-(piperazine-1-carbonyl)-2,3-dihydrobenzofuran-7-yl)-6,7-dihydro-5H-cyclopenta[b]pyridin-6-yl)methyl)pyrrolidine-2,5-dione] | < 1000 |
| C[C@@H]1CN(C(=O)C2Cc3cc(Cl)cc(-c4ccnc5[nH]ccc45)c3O2)CCN1 (stereo partly drawn) [(5-chloro-7-(1H-pyrrolo[2,3-b]pyridin-4-yl)-2,3-dihydrobenzofuran-2-yl)((R)-3-methylpiperazin-1-yl)methanone] | 1000 to 10000 |
| CCC(O)c1cc2ncnc(-c3cc(Cl)cc4c3O[C@@H](C(=O)N3CCNCC3)C4)c2s1 (stereo partly drawn) [((2R)-5-chloro-7-(6-(1-hydroxypropyl)thieno[3,2-d]pyrimidin-4-yl)-2,3-dihydrobenzofuran-2-yl)(piperazin-1-yl)methanone] | < 1000 |

The next lines start with the values.

| IC50 [nM] | SMILES |
| --- | --- |
| 1000 to 10000 | Cc1nnc2n1CCN(C(=O)[C@H]1Cc3cc(Cl)cc(-c4ccnc5cc(CO)sc45)c3O1)C2 [(R)-(5-chloro-7-(2-(hydroxymethyl)thieno[3,2-b]pyridin-7-yl)-2,3-dihydrobenzofuran-2-yl)(3-methyl-5,6-dihydro-[1,2,4]triazolo[4,3-a]pyrazin-7(8H)-yl)methanone] |
| 10000 to 30000 | Cn1nc([C@H]2Cc3cc(Cl)cc(-c4ccnc5cc(Cl)ccc45)c3O2)c2c1CCNC2 [(R)-7-chloro-4-(5-chloro-2-(1-methyl-4,5,6,7-tetrahydro-1H-pyrazolo[4,3-c]pyridin-3-yl)-2,3-dihydrobenzofuran-7-yl)quinoline] |
| < 1000 | COc1ccc2c(-c3cc(Cl)cc4c3O[C@@H](c3onc5c3CNCC5)C4)ccnc2c1 [(R)-3-(5-chloro-7-(7-methoxyquinolin-4-yl)-2,3-dihydrobenzofuran-2-yl)-4,5,6,7-tetrahydroisoxazolo[4,3-c]pyridine] |
| < 1000 | O[C@]1(c2cc3nccc(-c4cc(Cl)cc5c4O[C@@H](c4onc6c4CNCC6)C5)c3s2)CCOC1 [(R)-3-(7-((R)-5-chloro-2-(4,5,6,7-tetrahydroisoxazolo[4,3-c]pyridin-3-yl)-2,3-dihydrobenzofuran-7-yl)thieno[3,2-b]pyridin-2-yl)tetrahydrofuran-3-ol] |
| 10000 to 30000 | Cc1nc(-c2cc(Cl)cc3c2O[C@@H](c2onc4c2CNCC4)C3)c2sccc2n1 [(R)-3-(5-chloro-7-(2-methylthieno[3,2-d]pyrimidin-4-yl)-2,3-dihydrobenzofuran-2-yl)-4,5,6,7-tetrahydroisoxazolo[4,3-c]pyridine] |
| 1000 to 10000 | CN(C)C(=O)CCc1cc2nccc(-c3cc(Cl)cc4c3O[C@@H](C(=O)N3CCNCC3)C4)c2s1 [(R)-3-(7-(5-chloro-2-(piperazine-1-carbonyl)-2,3-dihydrobenzofuran-7-yl)thieno[3,2-b]pyridin-2-yl)-N,N-dimethylpropanamide] |
| < 1000 | CCC(O)c1cc2ncnc(-c3cc(Cl)cc4c3O[C@@H](c3onc5c3CNCC5)C4)c2s1 (stereo partly drawn) [drawing 1596, 1-(4-((R)-5-chloro-2-(4,5,6,7-tetrahydroisoxazolo[4,3-c]pyridin-3-yl)-2,3-dihydrobenzofuran-7-yl)thieno[3,2-d]pyrimidin-6-yl)propan-1-ol] |
| 1000 to 10000 | NC(=O)c1ccc2c(-c3cc(Cl)cc4c3O[C@@H](c3onc5c3CNCC5)C4)ccnc2c1 [(R)-4-(5-chloro-2-(4,5,6,7-tetrahydroisoxazolo[4,3-c]pyridin-3-yl)-2,3-dihydrobenzofuran-7-yl)quinoline-7-carboxamide] |
| < 1000 | O=C([C@H]1Cc2cc(Cl)cc(-c3ccnc4cc(CN5CCCCS5(=O)=O)sc34)c2O1)N1CCNCC1 [(R)-(5-chloro-7-(2-((1,1-dioxido-1,2-thiazinan-2-yl)methyl)thieno[3,2-b]pyridin-7-yl)-2,3-dihydrobenzofuran-2-yl)(piperazin-1-yl)methanone] |
| 1000 to 10000 | CC(=O)NCc1ccc2c(-c3cc(Cl)cc4c3O[C@@H](c3onc5c3CNCC5)C4)ccnc2c1 [(R)-N-((4-(5-chloro-2-(4,5,6,7-tetrahydroisoxazolo[4,3-c]pyridin-3-yl)-2,3-dihydrobenzofuran-7-yl)quinolin-7-yl)methyl)acetamide] |
| < 1000 | O=C([C@H]1Cc2cc(Cl)cc(-c3ccnc4ccsc34)c2O1)N1CCNCC1 [(R)-(5-chloro-7-(thieno[3,2-b]pyridin-7-yl)-2,3-dihydrobenzofuran-2-yl)(piperazin-1-yl)methanone] |
| 1000 to 10000 | CC[C@H](O)c1cc2nccc(-c3cc(Cl)cc4c3O[C@](C)(c3onc5c3CNCC5)C4)c2s1 [(S)-1-(7-((S)-5-chloro-2-methyl-2-(4,5,6,7-tetrahydroisoxazolo[4,3-c]pyridin-3-yl)-2,3-dihydrobenzofuran-7-yl)thieno[3,2-b]pyridin-2-yl)propan-1-ol] |
| 1000 to 10000 | Fc1cccc2c(-c3cc(Cl)cc4c3O[C@@H](c3onc5c3CNCC5)C4)ccnc12 [(R)-3-(5-chloro-7-(8-fluoroquinolin-4-yl)-2,3-dihydrobenzofuran-2-yl)-4,5,6,7-tetrahydroisoxazolo[4,3-c]pyridine] |
| < 1000 | O=C1CCCN1Cc1cc2nccc(-c3cc(Cl)cc4c3O[C@@H](C(=O)N3CCNCC3)C4)c2s1 [(R)-1-((7-(5-chloro-2-(piperazine-1-carbonyl)-2,3-dihydrobenzofuran-7-yl)thieno[3,2-b]pyridin-2-yl)methyl)pyrrolidin-2-one] |
| < 1000 | Clc1cc2c(c(-c3ccnc4ccsc34)c1)O[C@@H](c1[nH]nc3c1CNCC3)C2 [(R)-7-(5-chloro-2-(4,5,6,7-tetrahydro-2H-pyrazolo[4,3-c]pyridin-3-yl)-2,3-dihydrobenzofuran-7-yl)thieno[3,2-b]pyridine] |
| < 1000 | CN1CCc2noc([C@H]3Cc4cc(Cl)cc(-c5ccnc6cc(CO)sc56)c4O3)c2C1 [(R)-(7-(5-chloro-2-(5-methyl-4,5,6,7-tetrahydroisoxazolo[4,3-c]pyridin-3-yl)-2,3-dihydrobenzofuran-7-yl)thieno[3,2-b]pyridin-2-yl)methanol] |
| < 1000 | CC(=O)NC(C)c1cc2nccc(-c3cc(Cl)cc4c3O[C@@H](c3onc5c3CNCC5)C4)c2s1 (stereo partly drawn) [N-(1-(7-((R)-5-chloro-2-(4,5,6,7-tetrahydroisoxazolo[4,3-c]pyridin-3-yl)-2,3-dihydrobenzofuran-7-yl)thieno[3,2-b]pyridin-2-yl)ethyl)acetamide] |
